According to the supplement of paper PMC13380429:

Key:
Settings in all cases: 72 h
Caco-2 [1] = assay: relative viability EC50 (midpoint between 100% and the lowest measured viability); higher = less toxic
HepG2 [2] = assay: as above
U2OS [3] = assay: as above
Calu-3 [4] = assay: as above
Vero E6 [5] = assay: as above
Caco-2 [6] = assay: drug sensitivity score (DSS) for viability; higher = more toxic; extreme values may be limits of the assay
HepG2 [7] = assay: as above
U2OS [8] = assay: as above
Calu-3 [9] = assay: as above
Vero E6 [10] = assay: as above
Caco-2 [11] = assay: cell viability relative to DMSO; higher = less toxic
HepG2 [12] = assay: as above
U2OS [13] = assay: as above
Calu-3 [14] = assay: as above
Vero E6 [15] = assay: as above

SMILES	relative viability EC50 (Caco-2 [1])	relative viability EC50 (HepG2 [2])	relative viability EC50 (U2OS [3])	relative viability EC50 (Calu-3 [4])	relative viability EC50 (Vero E6 [5])	drug sensitivity score (Caco-2 [6])	drug sensitivity score (HepG2 [7])	drug sensitivity score (U2OS [8])	drug sensitivity score (Calu-3 [9])	drug sensitivity score (Vero E6 [10])	cell viability (Caco-2 [11]; 1 nM)	cell viability (Caco-2 [11]; 10 nM)	cell viability (Caco-2 [11]; 100 nM)	cell viability (Caco-2 [11]; 1000 nM)	cell viability (Caco-2 [11]; 10000 nM)	cell viability (HepG2 [12]; 1 nM)	cell viability (HepG2 [12]; 10 nM)	cell viability (HepG2 [12]; 100 nM)	cell viability (HepG2 [12]; 1000 nM)	cell viability (HepG2 [12]; 10000 nM)	cell viability (U2OS [13]; 1 nM)	cell viability (U2OS [13]; 10 nM)	cell viability (U2OS [13]; 100 nM)	cell viability (U2OS [13]; 1000 nM)	cell viability (U2OS [13]; 10000 nM)	cell viability (Calu-3 [14]; 1 nM)	cell viability (Calu-3 [14]; 10 nM)	cell viability (Calu-3 [14]; 100 nM)	cell viability (Calu-3 [14]; 1000 nM)	cell viability (Calu-3 [14]; 10000 nM)	cell viability (Vero E6 [15]; 1 nM)	cell viability (Vero E6 [15]; 10 nM)	cell viability (Vero E6 [15]; 100 nM)	cell viability (Vero E6 [15]; 1000 nM)	cell viability (Vero E6 [15]; 10000 nM)
Oc1c(Cl)cc(Cl)c2cccnc12 [chloroxine]	> 10000 nM	> 10000 nM	> 10000 nM	> 10000 nM	> 10000 nM	0.5	0	0	0.3	0	98.9%	102%	96.6%	91.4%	85.3%	75.3%	89.9%	92.2%	91.6%	76%	102%	103%	96.7%	101%	94.4%	93.9%	103%	91.9%	100%	84.2%	100%	105%	96.9%	93.5%	96.7%
Cc1ncc(C[n+]2csc(CCO)c2C)c(N)n1 [thiamine]	> 10000 nM	> 10000 nM	> 10000 nM	> 10000 nM	> 10000 nM	0	0	0	0	0	107%	103%	100%	96.9%	102%	96%	103%	96.2%	105%	88.2%	104%	104%	102%	105%	99.1%	104%	91.6%	99.6%	104%	105%	95.7%	108%	98.4%	102%	99.7%
CC(C)(C)c1ccc(S(=O)(=O)NCc2ccc(C(=O)Nc3cccnc3)cc2)cc1 [STF-31]	2260 nM	1450 nM	698 nM	3480 nM	3200 nM	7	8.1	13.6	4.7	5.4	96.7%	99.3%	96.2%	89.6%	5.5%	105%	103%	106%	76.5%	16.9%	103%	98.8%	106%	28.8%	0.2%	90.7%	96.3%	100%	106%	7.7%	103%	102%	106%	101%	2.9%
COc1ccc(/C=C\c2cc(OC)c(OC)c(OC)c2)cc1O [combretastatin-A-4]	17.5 nM	46.6 nM	6 nM	304 nM	10.7 nM	19.1	18.3	30.8	11.5	28.4	93.5%	76.9%	52.8%	40.3%	43.9%	99.6%	99.8%	45.2%	37.9%	37.3%	94.5%	47.4%	22.3%	23.6%	22.2%	100%	107%	85.8%	47.2%	34.5%	97.1%	63.9%	22.5%	22.8%	25.1%
